# Assay results reported in patent US20050009813A1 (priority 2001, published 2005).
# Values joined by “and” are separate entries in the source; they are usually repeats but may differ in a detail not shown here. Equal values may be shown once. Where a name gives a salt, the structure may show the parent alone.
# Columns and labels:
# [1] = test system: behavioural despair (acquired immobility); assay: Forced Swimming Test (Porsolt Swimming Test) on rats; assay type: in vivo, rat (Sprague Dawley); settings: for Acquired Immobility (group mean value in minutes ± standard dev.): three administrations, 5 min test; for Acquired Immobility (group mean value in minutes ± standard dev.) / Change relative to control group (acquired immobility): rat, SD strain
# Experimental: To verify whether this MAO-A-inhibitory action in vivo is relevant, deoxypeganine was tested in the “Forced Swimming Test” on rats (R. D. Porsolt et al., Nature 1977; 266(5604): 730-732). […] The time spent with attempts at escape until the animals fall into this psychomotorical inactivation (considered to be a surrogate for depression) is measured; prolonged activity corresponds to antidepressive action.
# In the concrete case, […], about 6 weeks old (strain Sprague Dawley); acquired from Charles River UK Ltd.) were divided into 7 groups with 10 animals each. On the first day, after termination of the habituation phase, each animal was placed for 10 minutes in a cylindrical vessel filled about 15 cm high with 25°-warm water; this was followed, after one hour, 19 hours, and 23 hours, by three oral administrations of (depending on the group) either negative control (water), 15 mg/kg positive control (imipramine.HCl), or deoxypeganine.HCl in dosages of 1.0, 2.5, 7.5, 15.0 or 22.5 mg/kg of bodyweight. The volume, administered with the aid of a gastric tube, was in each case 5 ml/kg of bodyweight. One hour after the third of these treatments, each animal was again placed in the vessel for exactly 5 minutes and the time spent in minimal mobility was measured.
# [2] = molecular target: T1, monoamino oxidase A from rat brain (Rattus norvegicus, UniProt P21396); assay: Inhibition of monoamino oxidase A from rat brain, [3H]serotonine substrate (Medvedev et al.); assay type: biochemical, rat (Wistar strain); settings: rat brain MAO-A; 95 μM [3H]serotonine; 1% DMSO in 20 mM potassium dihydrogenphosphate buffer pH 7.4; 10 nM to 10 μM; read-out: semi-maximal inhibitory action (IC50), monoamino oxidase A
# T1 sequence (P21396 1-526): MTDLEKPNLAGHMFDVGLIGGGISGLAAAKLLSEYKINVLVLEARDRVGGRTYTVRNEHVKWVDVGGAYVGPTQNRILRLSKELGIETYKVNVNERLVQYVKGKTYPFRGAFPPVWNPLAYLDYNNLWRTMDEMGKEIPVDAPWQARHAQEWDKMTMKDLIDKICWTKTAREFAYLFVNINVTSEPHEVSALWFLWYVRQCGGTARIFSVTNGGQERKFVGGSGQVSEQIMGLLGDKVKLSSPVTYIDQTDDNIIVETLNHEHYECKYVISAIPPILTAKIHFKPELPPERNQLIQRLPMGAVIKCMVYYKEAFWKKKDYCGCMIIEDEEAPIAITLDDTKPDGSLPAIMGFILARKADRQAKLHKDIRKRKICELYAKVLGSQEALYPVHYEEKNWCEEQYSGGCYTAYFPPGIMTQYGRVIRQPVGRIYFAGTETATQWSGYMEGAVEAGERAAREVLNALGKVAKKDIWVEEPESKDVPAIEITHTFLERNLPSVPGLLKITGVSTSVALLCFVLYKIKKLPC
# Experimental: The inhibitory action of deoxypeganine in respect of monoamino oxidase A from rat brain (Wistar strain) was measured in the concentration range of from 10 nM to 10 μM according to the method described by Medvedev et al. (Biochem Pharmacol 1994; 47(2): 303-308) and compared with clorogyline as the positive control, whereby in both cases 95 μM [^3H]serotonine in a solution of 1% dimethylsulfoxide in 20 mM of potassium dihydrogenphosphate buffer pH 7.4 served as substrate.
# [3] = test system: psychomotoric activation; assay: Open Field Paradigma; assay type: in vivo, Sprague-Dawley rats; settings: treatment for 2 weeks, daily doses of 2.5 to 22.5 mg/kg
# Excerpt: Since such results can in principle also be obtained by psychomotorically activating substances which have no anti-depressive action, the effect of deoxypeganine was also examined, with the same dose range, in the so-called Open Field Paradigma. Here one makes use of the fact that it is stressful for rats to stay in an open, bright area, and therefore such situations are avoided by the rats if possible.
# [4] = test system: cholinergic memory deficits; assay: Compensation of cholinergic memory deficits in rats with partially destroyed central cholinergic pathways; assay type: in vivo
# Excerpt: It can be inferred therefrom that the effect observable in the swimming test reaches its maximum at a fraction of the dose necessary for maximal activation of the cholinergic system, which according to the state of the art could not be reckoned with.
# [5] = molecular target: T2, Monoamino oxidase B (Rattus norvegicus, UniProt P19643); assay: Inhibition of monoamino oxidase B
# T2 sequence (P19643 1-520): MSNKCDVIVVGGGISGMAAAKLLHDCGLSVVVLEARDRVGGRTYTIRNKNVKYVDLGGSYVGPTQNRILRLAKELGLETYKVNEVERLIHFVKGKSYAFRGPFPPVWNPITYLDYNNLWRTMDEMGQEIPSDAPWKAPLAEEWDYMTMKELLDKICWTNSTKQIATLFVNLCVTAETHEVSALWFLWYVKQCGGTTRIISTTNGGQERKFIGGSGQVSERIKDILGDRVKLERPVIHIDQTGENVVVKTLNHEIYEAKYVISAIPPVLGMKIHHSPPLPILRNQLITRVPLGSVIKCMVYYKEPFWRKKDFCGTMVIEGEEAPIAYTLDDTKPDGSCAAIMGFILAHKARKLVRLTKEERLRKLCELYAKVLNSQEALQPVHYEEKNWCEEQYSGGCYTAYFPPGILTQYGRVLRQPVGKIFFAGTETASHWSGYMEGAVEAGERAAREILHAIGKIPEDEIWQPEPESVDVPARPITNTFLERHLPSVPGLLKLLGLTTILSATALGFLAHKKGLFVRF
structure (smiles),measurement,setting,value
Cl.c1ccc2c(c1)CN1CCCC1=N2 [deoxypeganine hydrochloride],Acquired Immobility (group mean value in minutes ± standard dev.),[1]; 1.0 mg/kg p.o.,3.46 ± 0.83 min
same,Change relative to control group (acquired immobility),[1]; 1.0 mg/kg p.o.,+0.3%
same,Acquired Immobility (group mean value in minutes ± standard dev.),[1]; 2.5 mg/kg p.o.,2.80 ± 1.02 min
same,Change relative to control group (acquired immobility),[1]; 2.5 mg/kg p.o.,−18.8%
same,Change relative to control group (acquired immobility),"[1]; 7.5 mg/kg p.o., hydrochloride",−47.2% and −41.4%
same,Change relative to control group (acquired immobility),[1]; 15 mg/kg p.o.,−44.1%
same,Change relative to control group (acquired immobility),[1]; 22.5 mg/kg p.o.,−43.8%
"c1ccc2c(c1)CN1CCCC1=N2 [deoxypeganine, 1,2,3,9-tetrahydropyrrolo[2,1-b]quinazoline]",IC50,[2],1490 nM
same,"effectiveness in forced swimming test, in words",[1]; 2.5 mg/kg,only partially effective
same,"effectiveness in forced swimming test, in words",[1]; dose of 1 mg/kg,not yet effective
same,dose of maximal action in the Porsolt test,"[1]; p.o., comparable to the antidepressant imipramine",7.5 mg/kg
same,"psychomotoric activation in open field, in words",[3],no indication of psychomotoric activation
same,"compensation of cholinergic memory deficits, in words",[4]; 22.5 mg/kg oral,had not yet reached its maximum value
same,"compensation of cholinergic memory deficits, in words",[4]; oral dose of 7.5 mg/kg,not yet statistically significant
same,"inhibition of Type B enzyme (MAO-B), in words",[5]; in vitro,not significantly inhibited
same,inhibition at 10 µM,[5]; read-out: inhibition of monoamino oxidase B,15 to 20%
"CN(C)CCCN1c2ccccc2CCc2ccccc21 [imipramine HCl, reference compound]",Change relative to control group (acquired immobility),"[1]; 15 mg/kg p.o., HCl",−56.5% and −58.9%
